Data published in US7169816B2, “4-bromo or 4-iodo phenylamino benzhydroxamic acid derivatives and their use as MEK inhibitors” (Warner-Lambert Company, priority 1997, dated 2007).
Counter-ions that a name gives are not always drawn.

What follows are compounds tested against p45MEK (GST-MEK) (Homo sapiens, UniProt Q02750) (assay: Cascade assay for inhibitors of the MAP kinase pathway (in vitro)).
Assay type: biochemical
Procedure: Incorporation of ^32P into myelin basic protein (MBP) was assayed in the presence of a glutathione S-transferase fusion protein containing p44MAP kinase (GST-MAPK) and a glutathione S-transferase fusion protein containing p45MEK (GST-MEK). The assay solution contained 20 mM HEPES, pH 7.4, 10 mM MgCl2, 1 mM MnCl2, 1 mM EGTA, 50 μM [γ-^32P]ATP, 10 μg GST-MEK, 0.5 μg GST-MAPK and 40 μg MBP in a final volume of 100 μL. […] Compounds were assessed at 10 μM for ability to inhibit incorporation of ^32P.
To ascertain whether compounds were inhibiting GST-MEK or GST MAPK, two additional protocols were employed. In the first protocol, compounds were added to tubes containing GST-MEK, followed by addition of GST-MAPK, MBP and [γ-^32P]ATP. In the second protocol, compounds were added to tubes containing both GST-MEK and GST-MAPK, followed by MBP and [γ-^32P]ATP.

p45MEK (GST-MEK), sequence (Q02750 whole entry): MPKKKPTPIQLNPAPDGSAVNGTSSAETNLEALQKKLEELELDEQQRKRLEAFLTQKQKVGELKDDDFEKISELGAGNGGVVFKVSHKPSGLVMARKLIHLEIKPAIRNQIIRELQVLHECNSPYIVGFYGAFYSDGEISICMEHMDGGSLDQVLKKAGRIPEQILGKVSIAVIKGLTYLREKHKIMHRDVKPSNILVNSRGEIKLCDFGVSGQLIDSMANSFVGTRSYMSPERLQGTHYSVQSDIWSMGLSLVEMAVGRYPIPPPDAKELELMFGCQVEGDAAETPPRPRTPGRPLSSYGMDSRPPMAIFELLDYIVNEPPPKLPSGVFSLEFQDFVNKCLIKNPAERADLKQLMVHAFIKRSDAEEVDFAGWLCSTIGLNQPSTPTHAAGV

SMILES	IC50 [nM]
Cc1cc(I)ccc1Nc1ccc(Cl)cc1C(=O)N(C)O [Example 5, 5-Chloro-N-hydroxy-2-(4-iodo-2-methyl-phenylamino)-N-methyl-benzamide]	566
CONC(=O)c1ccc(F)cc1Nc1ccc(I)cc1C [Example 13, 4-Fluoro-2-(4-iodo-2-methyl-phenylamino)-N-methoxy-benzamide]	243
O=C(NO)c1ccc(F)cc1Nc1ccc(I)cc1Cl [Example 87, 2-(2-Chloro-4-iodo-phenylamino)-4-fluoro-N-hydroxy-benzamide (HCl salt)]	< 1
CCCONC(=O)c1ccc(F)cc1Nc1ccc(I)cc1C [Example 42, 4-Fluoro-2-(4-iodo-2-methyl-phenylamino)-N-propoxy-benzamide]	87
CC(C#Cc1ccccc1)=CCONC(=O)c1ccc(F)c(F)c1Nc1ccc(Br)cc1C [Example 39, 2-(4-Bromo-2-methyl-phenylamino)-3,4-difluoro-N-(3-methyl-5-phenyl-pent-2-en-4-ynyloxy)-benzamide]	147
Cc1cc(I)ccc1Nc1c(C(=O)NOCc2cccs2)ccc(F)c1F [Example 63, 3,4-Difluoro-2-(4-iodo-2-methyl-phenylamino)-N-(thiophen-2-ylmethoxy)-benzamide]	19
C#CCONC(=O)c1ccc(F)cc1Nc1ccc(I)cc1C [Example 25, 4-Fluoro-2-(4-iodo-2-methyl-phenylamino)-N-(prop-2-ynyloxy)-benzamide]	102
CONC(=O)c1ccc(F)c(F)c1Nc1ccc(I)cc1C [Example 14, 3,4-Difluoro-2-(4-iodo-2-methyl-phenylamino)-N-methoxy-benzamide]	61
Cc1cc(I)ccc1Nc1c(C(=O)NOCCN2CCCCC2)cc(Br)c(F)c1F [Example 85, 3,4-Difluoro-5-bromo-2-(4-iodo-2-methyl-phenylamino)-N-(2-piperidin-1-yl-ethoxy)-benzamide]	24
C#CCCONC(=O)c1cc(Br)c(F)c(F)c1Nc1ccc(I)cc1C [Example 31, 5-Bromo-N-(but-3-ynyloxy)-3,4-difluoro-2-(4-iodo-2-methyl-phenylamino)-benzamide]	45
CC=CCONC(=O)c1ccc(F)cc1Nc1ccc(I)cc1C [Example 68, N-(But-2-enyloxy)-4-fluoro-2-(4-iodo-2-methyl-phenylamino)-benzamide]	119
Cc1cc(I)ccc1Nc1c(C(=O)NOCC#Cc2ccccc2)ccc(F)c1F [Example 32, 3,4-Difluoro-2-(4-iodo-2-methyl-phenylamino)-N-(3-phenyl-prop-2-ynyloxy)-benzamide]	17
CCCONC(=O)c1ccc(F)c(F)c1Nc1ccc(Br)cc1C [Example 44, 2-(4-Bromo-2-methyl-phenylamino)-3,4-difluoro-N-propoxy-benzamide]	475
Cc1cc(I)ccc1Nc1c(C(=O)NOCc2ccoc2)cc(Br)c(F)c1F [Example 23, 5-Bromo-3,4-difluoro-N-(furan-3-ylmethoxy)-2-(4-iodo-2-methyl-phenylamino)-benzamide]	16
Cc1cc(I)ccc1Nc1c(C(=O)NOC2CCCCO2)cc(Br)c(F)c1F (stereo not drawn) [Example 86, 5-Bromo-3,4-difluoro-2-(4-iodo-2-methyl-phenylamino)-N-(tetrahydro-pyran-2-yloxy)-benzamide]	47
Cc1cc(I)ccc1Nc1c(C(=O)NOCC2CC2)cc(F)c(F)c1F [Example 79, N-Cyclopropylmethoxy-3,4,5-trifluoro-2-(4-iodo-2-methyl-phenylamino)-benzamide]	8
CCONC(=O)c1ccc(F)c(F)c1Nc1ccc(I)cc1C [Example 40, N-Ethoxy-3,4-difluoro-2-(4-iodo-2-methyl-phenylamino)-benzamide]	28
C#CCCONC(=O)c1ccc(F)c(F)c1Nc1ccc(I)cc1C [Example 29, N-(But-3-ynyloxy)-3,4-difluoro-2-(4-iodo-2-methyl-phenylamino)-benzamide]	76
CC=CCONC(=O)c1ccc(F)c(F)c1Nc1ccc(I)cc1C [Example 69, N-(But-2-enyloxy)-3,4-difluoro-2-(4-iodo-2-methyl-phenylamino)-benzamide]	16
Cc1cc(I)ccc1Nc1c(C(=O)NOCc2ccoc2)ccc(F)c1F [Example 21, 3,4-Difluoro-N-(furan-3-ylmethoxy)-2-(4-iodo-2-methyl-phenylamino)-benzamide]	14

More lines, now with the values ahead:

IC50 [nM]	SMILES
14	CCONC(=O)c1cc(Br)c(F)c(F)c1Nc1ccc(I)cc1C [Example 17, 5-Bromo-N-ethoxy-3,4-difluoro-2-(4-iodo-2-methyl-phenylamino)-benzamide]
181	Cc1cc(Br)ccc1Nc1c(C(=O)NOCC2CC2)ccc(F)c1F [Example 57, 2-(4-Bromo-2-methyl-phenylamino)-N-cyclopropylmethoxy-3,4-difluoro-benzamide]
113	Cc1cc(I)ccc1Nc1c(C(=O)NOCC#Cc2cccc(F)c2)ccc(F)c1F [Example 34, 3,4-Difluoro-N-[3-(3-fluoro-phenyl)-prop-2-ynyloxy]-2-(4-iodo-2-methyl-phenylamino)-benzamide]
38	O=C(NOC1CCCCO1)c1cc(Br)c(F)c(F)c1Nc1ccc(I)cc1Cl (stereo not drawn) [Example 94, 5-Bromo-2-(2-chloro-4-iodo-phenylamino)-3,4-difluoro-N-(tetrahydro-pyran-2-yloxy)-benzamide]
221	CONC(=O)c1cc(Cl)ccc1Nc1ccc(I)cc1C [Example 7, 5-Chloro-2-(4-iodo-2-methyl-phenylamino)-N-methoxybenzamide]
86	Cc1cc(I)ccc1Nc1cc(F)ccc1C(=O)NOCc1cccs1 [Example 62, 4-Fluoro-2-(4-iodo-2-methyl-phenylamino)-N-(thiophen-2-ylmethoxy)-benzamide]
409	Cc1ccccc1Nc1cc(F)ccc1C(=O)NO [Example 9, 4-Fluoro-N-hydroxy-2-(2-methylphenylamino)-benzamide]
69	O=C(NOC1CCCCO1)c1ccc(F)cc1Nc1ccc(I)cc1Cl (stereo not drawn) [Example 88, 2-(2-Chloro-4-iodo-phenylamino)-4-fluoro-N-(tetrahydro-pyran-2-yloxy)-benzamide]
43	Cc1cc(I)ccc1Nc1c(C(=O)NOC2CCC2)ccc(F)c1F [Example 50, N-Cyclobutyloxy-3,4-difluoro-2-(4-iodo-2-methyl-phenylamino)-benzamide]
2	Cc1cc(I)ccc1Nc1c(C(=O)NOCC#Cc2ccccc2F)cc(Br)c(F)c1F [Example 37, 5-Bromo-3,4-difluoro-N-[3-(2-fluoro-phenyl)-prop-2-ynyloxy]-2-(4-iodo-2-methyl-phenylamino)-benzamide]
80	Cc1cc(I)ccc1Nc1cc(F)ccc1C(=O)N(C)O [Example 80, 4-Fluoro-N-hydroxy-2-(4-iodo-2-methyl-phenylamino)-N-methyl-benzamide]
57	C=C(C)CONC(=O)c1ccc(F)cc1Nc1ccc(I)cc1C [Example 65, 4-Fluoro-2-(4-iodo-2-methyl-phenylamino)-N-(2-methyl-allyloxy)-benzamide]
236	CCONC(=O)c1ccc(F)c(F)c1Nc1ccc(Br)cc1C [Example 41, 2-(4-Bromo-2-methyl-phenylamino)-N-ethoxy-3,4-difluoro-benzamide]
